Where two headings read alike, the source gives them in different places.
Tested on: patients with Fuchs Corneal Dystrophy (corneal edema)
Assay type: in vivo, human
Conditions: for BCVA (best corrected visual acuity) improvement: netarsudil QD
From the text: FIG. 1 is a graphic representation of the study described in Example 6.
A Randomized, Open-Label, Parallel-Group Study of Two Dosing Regimens of Netarsudil in Patients with Fuchs Corneal Dystrophy
Fuchs Corneal Dystrophy (FCD) is a slowly progressive corneal disease, and is the most common indication for corneal transplants worldwide. A typical patient presents with blurred vision, glare, and a hazy cornea from corneal edema. The only definitive treatment option to restore vision is surgery. There is a large unmet need for pharmacologic alternatives to surgery
Purpose of this study: evaluate the therapeutic potential of two dosing regimens of netarsudil, a Rho kinase inhibitor, to reduce corneal edema and improve visual acuity in patients with FCD. […] Complete resolution of edema in 12.5% of patients at Week 4 (BID+QD) (FIG. 2). • d. 25% of patients gained letters from baseline in BCVA at Week 4 (BID+QD) (FIG. 4). • e. […] Improvements in validated patient reported outcome questionnaire shown at all timepoints with netarsudil QD dosing (FIG. 5). • g. […] Most common ocular TEAE was hyperemia accounting for 3/9 and 6/17 total ocular TEAE in the QD and BID groups, respectively. • i. Reticular edema developed in 1 patient in BID group, which resolved with treatment discontinuation.

- reticular edema developed (human, in vivo): 1 patient
Structure (SMILES): Cc1ccc(C(=O)OCc2ccc([C@@H](CN)C(=O)Nc3ccc4cnccc4c3)cc2)c(C)c1 [netarsudil, Netarsudil]
- tolerability (human, in vivo): well tolerated
- BCVA (best corrected visual acuity) improvement (week 2): 5.0 letters
- BCVA (best corrected visual acuity) improvement (week 4): 3.2 letters
- patients with complete resolution of edema (week 4, BID+QD): 12.5%
- patients who gained letters from baseline in BCVA (week 4, overall (BID+QD)): 25%
